How the values were obtained:
[1] = tested on: CREB signaling in VMH; test: CREB phosphorylation in hypothalamus (VMH) after injection; type: in vivo, mouse
Protocol: FIG. 28. (A) Western blot analysis of HTR2C and p-CREB in hypothalamus tissue from 12-week-old mice after PGE2 or vehicle injection at different periods. […] DAPI stains nuclei blue. Scale bar, 50 μm.
The femurs were collected and fixed in 4% paraformaldehyde overnight and decalcified by using 10% EDTA (pH, 7.4) (Amresco, 0105) for 21 days. The samples were then dehydrated with 30% sucrose for 24 h and embedded in paraffin or optimal cutting temperature compound (Sakura Finetek). 4-μm-thick coronal-oriented sections of the femur were prepared for hematoxylin and eosin staining. The femurs were fixed for 4 h with 4% paraformaldehyde at 4° C. and then decalcified at 4° C. using 0.5M EDTA (pH, 7.4) for 24 h with constant shaking. The samples were dehydrated in 20% sucrose and 2% polyvinylpyrrolidone (PVP) solution for 24 h and embedded in 8% gelatin (Sigma-Aldrich, G1890) in the presence of 20% sucrose and 2% PVP. Forty-μm-thick coronal-oriented sections of the femurs were obtained.

[2] = tested on: DRG neurons; test: Calcium imaging of isolated DRG neurons; settings: DRG neurons pre-incubated with 10 μM PGE2 for 5 min, relative to vehicle-treated neurons
[3] = tested on: EP4 in the sensory nerves; test: PGE2-induced bone formation, trichrome and calcein double labeling; type: in vivo, mouse; settings: EP4Avil−/− mice; 3 mg per kg per day PGE2 for 3 consecutive days
Protocol: (§1) FIG. 9. […] DAPI stains nuclei blue. […] Calcein was injected 5 days and 1 day before sacrifice. Representative images of calcein double labeling of femoral trabecular bone with quantification of mineral apposition rate (MAR) and bone formation rate (BFR). Scale bar, 20 μm. […] (Student t-test, except j with ANOVA)
(§2) As EP4 expression is also known to express in osteoblasts, osteoblastic cell-specific knockout EP4 mice were generated by crossing […] mice with osteocalcin-cre (OC-cre) mice (FIG. 12A).
(§3) A double-labeling procedure was performed to measure dynamic bone formation. Briefly, 0.1% calcein (Sigma-Aldrich, C0875) was injected in phosphate-buffered saline at a concentration of 10mg per kg into the mice subcutaneously 7 days and 1 day before sacrifice. The double-labeling images of undecalcified bone slices were captured using a fluorescence microscope. Trabecular bone formation in four randomly selected visual fields was analyzed in the distal metaphyseal area of the femur.

[4] = target: EP4 in the sensory nerves (Mus musculus, UniProt P32240); test: as above; type: in vivo; settings: wild-type mice; 3 mg per kg per day PGE2 for 3 consecutive days
Chain of EP4 in the sensory nerves (Mus musculus, UniProt P32240) (P32240 whole entry): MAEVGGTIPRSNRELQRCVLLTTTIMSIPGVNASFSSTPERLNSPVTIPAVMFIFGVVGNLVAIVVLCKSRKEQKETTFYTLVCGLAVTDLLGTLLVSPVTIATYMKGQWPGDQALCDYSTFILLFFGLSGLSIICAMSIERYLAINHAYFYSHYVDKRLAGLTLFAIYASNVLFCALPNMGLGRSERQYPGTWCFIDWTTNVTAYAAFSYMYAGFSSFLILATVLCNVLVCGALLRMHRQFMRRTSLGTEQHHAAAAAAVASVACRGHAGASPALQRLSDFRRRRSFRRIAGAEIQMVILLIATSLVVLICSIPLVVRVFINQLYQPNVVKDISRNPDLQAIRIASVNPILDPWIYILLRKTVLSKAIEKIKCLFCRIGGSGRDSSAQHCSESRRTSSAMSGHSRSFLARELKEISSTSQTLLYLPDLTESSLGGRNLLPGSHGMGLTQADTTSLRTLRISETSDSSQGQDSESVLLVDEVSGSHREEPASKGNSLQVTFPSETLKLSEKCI
Protocol: as §1, §2, §3

[5] = target: T1, 15-PGDH (Mus musculus, UniProt Q8VCC1); test: Liver regeneration after partial hepatectomy; type: in vivo; settings: TrkAAvil−/− mice treated with SW033291 relative to WT littermates
T1 sequence (Q8VCC1 1-269): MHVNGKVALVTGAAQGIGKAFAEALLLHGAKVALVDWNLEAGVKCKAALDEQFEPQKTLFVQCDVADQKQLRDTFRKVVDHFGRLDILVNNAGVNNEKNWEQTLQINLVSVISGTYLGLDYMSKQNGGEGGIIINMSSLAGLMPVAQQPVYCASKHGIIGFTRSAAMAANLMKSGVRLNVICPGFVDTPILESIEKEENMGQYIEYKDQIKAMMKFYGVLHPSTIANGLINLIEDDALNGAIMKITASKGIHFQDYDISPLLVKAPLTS
Text: FIG. 32. (A) Double-immunofluorescence images of liver tissue sections from TrkA^wt and TrkAAvil^−/− mice with vehicle or SW033291 treatment using antibodies against and Ki67 (red) and CGRP (green). DAPI stains nuclei blue. Percentages of the Ki67+cells are shown in the right panel. Scale bar, 100 μm.(B) BrdU staining images of liver tissue sections from TrkA^wt and TrkAAvil^−/− mice with vehicle or SW033291 treatment. Scale bar, […]. Percentages of the BrdU+cells are shown in the right panel. […] (ANOVA).
To further investigate whether PGE2 induces regeneration by sensory nerves of tissues other than bone, experiments were conducted that performed partial hepatectomy in TrkAAvil^−/− mice and their WT littermates treated with SW033291 or vehicle.
Partial hepatectomy was used for the liver regeneration model. 10- to 12-week-old […] male mice were anesthetized, as described above. A partial (two-thirds) hepatectomy was performed by resecting the median and left lateral hepatic lobes^54. The remnant livers were harvested after mice sacrifice. SW033291 was dissolved in a vehicle of 10% ethanol, 5% Cremophor EL, and 85% dextrose 5% in water.

[6] = target: T1, 15-PGDH; test: Bone regeneration after femoral bone marrow ablation; type: in vivo
Text: FIG. 31. […] Scale bar: 1 mm. Selected areas for the measurements of bone volume (BV)/tissue volume (TV) were indicated with a yellow square. b Representative images of hematoxylin-eosin staining, double immunofluorescence analysis of CD31^+ Emcn^+ cells, and immunofluorescence analysis of Leptin receptor (LepR)^+ cells in the regeneration area. Scale bar, 100 μm. c Graphic illustration of this study. When bone density decreases by osteoclast bone resorption, PGE2 secretion by osteoblastic cells increases at bone remodeling sites. PGE2 activates EP4 receptor at sensory nerve to tune down sympathetic tones for osteoblast differentiation at the bone remodeling microenvironment. The sensory nerve controlling process is likely a temporal-spatial precision action. […] (ANOVA)
PGE2 has been reported recently to potentiate regeneration of multiple tissues (see, Zhang, Y. et al. Science 348, aaa2340, doi:10.1126/science.aaa2340 (2015)). To investigate whether PGE2 induces tissue regeneration through sensory nerves, experiments were conducted that assessed whether PGE2 induces bone regeneration. […] However, the regeneration of trabecular bone by SW033291 was obstructed in EP4Avil^−/− mice (FIG. 31A, B). […] Thus, PGE2 stimulates bone regeneration through sensory nerves.
The femurs were harvested from mice, and the soft tissue around the bone was removed, followed by fixation overnight using 4% paraformaldehyde. μCT analyses were performed by using a high-resolution μCT scanner (SkyScan, 1174). The voltage of the scanning procedure was 65 kv with a 153-μA current. The resolution was set to 8.7 μm per pixel. Reconstruction software (NRecon, v1.6, SkyScan), data analysis software (CTAn, v1.9, SkyScan), and 3D model visualization software (CTVol, v2.0, SkyScan) were used to analyze the diaphyseal cortical bone and the metaphyseal trabecular bone parameters of the femurs. Experiments were conducted that created cross-sectional images of the femur to perform 2D analyses of the cortical bone and 3D analyses of the trabecular bone. The region of interest (ROI) of the trabecular bone was drawn beginning from 5% of the femur length proximal to the distal metaphyseal growth plate and extending proximally for another 5% of the total femur length. The trabecular bone volume fraction (BV/TV), trabecular thickness (Tb. Th), trabecular number (Tb. N), and trabecular separation (Tb. Sp) were collected from the 3D analyses data and used to represent the trabecular bone parameters. The cortical bone ROI was drawn beginning from 20% of femur length proximal to distal metaphyseal growth plate and extending proximally to another 10% of the total femur length. […]

[7] = tested on: sensory nerves of iDTRAvil mice; settings: mouse, in vivo

`O=C(O)CCC/C=C\C[C@H]1C(=O)C[C@@H](O)[C@@H]1/C=C/[C@@H](O)CCc1ccccc1` [EP1/3 agonist] was tested, and the “phosphorylation of CREB (pCREB level) in VMH” value ([1]; C57BL/6 mice, agonist 200 ug per kg, 6 hours, relative to vehicle-treated mice) was “did not increase”.

For `CCCCC[C@H](O)/C=C/[C@H]1[C@H](O)CC(=O)[C@@H]1C/C=C\CCCC(=O)O` [PGE2, prostaglandin E2], the “activated (illuminated) DRG neurons, calcium imaging” value [2] was “more illuminated DRG neurons”, the “phosphorylation of CREB in hypothalamus, Western blot time course” value ([1]; 12-week-old mice after PGE2 injection) was “increased gradually” and the “PGE2-induced CREB phosphorylation in VMH, immunostaining” value ([1]; EP4Avil−/− mice, 3 mg per kg PGE2, 6 h) was “abolished”. The “CREB phosphorylation in VMH, immunostaining” value ([1]; WT (EP4wt) mice, 3 mg per kg PGE2, 6 h after injection) was “increased significantly”, the “time of peak phosphorylation of CREB in hypothalamus” value ([1]; Western blot, after PGE2 injection) was 6 h and the “bone formation (trichrome, calcein double labeling: MAR, BFR)” value [3] was “abolished”. For the same compound, the “bone formation (trichrome, calcein double labeling: MAR, BFR)” value [4] was “significant bone formation”.

`CCCC[S+]([O-])c1sc2nc(-c3cccs3)cc(-c3ccccc3)c2c1N` (stereo not shown) [SW033291] was tested, and the “liver regeneration rate (BrdU and Ki67 staining)” value [5] was “decreased significantly”, the “type H vessels in the regeneration area” value ([6]; EP4Avil−/− mice with or without injection of SW033291) was “almost undetectable” and the “regeneration of trabecular bone” value ([6]; EP4Avil−/− mice, 10 mg per kg per day SW033291) was “obstructed”. The “type H vessel (CD31hi Endomucinhi) growth in the regeneration area” value ([6]; EP4wt mice treated with SW033291) was “significantly increased” and the “trabecular bone regeneration (μCT, HE staining)” value ([6]; EP4wt mice, 10 mg per kg per day SW033291, relative to vehicle-treated controls) was “boosted trabecular bone regeneration significantly”.

In the case of diphtheria toxin [DTX], the “Sensory denervation (CGRP+ sensory nerves in femur)” value [7] is reported as “effectively induced”, the amount of osteoid [7] is reported as “significantly decreased” and the “bone formation (calcein double-labeling)” value [7] is reported as “reduced”. The “bone loss (μCT, femur)” value [7] was “Significant bone loss”, the “bone mass in the vertebrae” value [7] was “decreased” and the “mineral apposition rate (calcein double-labeling)” value [7] was “reduced”. The “motor neural activity (pole tests and grip strength tests)” value [7] was “No motor neural activity was influenced”, the number of osteoblasts [7] was “significantly decreased” and the number of osteoclasts [7] was “unchanged”. The “sensory innervations in the vertebrae” value [7] was “decreased”, the “serum CTX level” value [7] was “unchanged” and the serum osteocalcin level [7] was “significantly decreased”.
